Experimental data taken from patent US11136321B2, “Tricyclic compounds” (ALIGOS THERAPEUTICS, INC., priority 2019, dated 2021).

Tested on: HBV
Test: HBV-DNA antiviral assay using HepG2.117 cells
Type: cell-based, genotype D HBV
Details: intracellular HBV DNA by qPCR, 3 days incubation
How it was run: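 HepG2.117 cells (genotype D HBV, Tet-off) seeded without doxycycline and treated for 3 days at 9 concentrations (4-fold dilutions) in 2% DMSO. Intracellular HBV DNA measured by qPCR against a standard curve, with viability from ATPlite run in parallel. EC50, EC90 and CC50 fitted relative to DMSO controls.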

| SMILES | EC50 (Hepatitis B virus, 72 h) [nM] | EC50 [nM] |
| --- | --- | --- |
| CNC(=O)c1ccc(-n2c(=O)c3c(n4ncc(N[C@H](C)c5ccccc5)c24)CN(C(=O)c2ccc(Br)c(Cl)c2)CC3)cc1 (stereo in doubt) [Compound 79, 4-[12-(4-bromo-3-chloro-benzoyl)-8-oxo-5-[[rac-(1R)-1-phenylethyl]amino]-2,3,7,12-tetrazatricyclo [7.4.0.0 2,6]trideca-1(9),3,5-trien-7-yl]-N-methyl-benzamide] | 100 to 500 |  |
| O=C(c1ccc(Br)c(Cl)c1)N1CCc2c(n3nc(Cc4ccccc4)cc3n(-c3ccccc3)c2=O)C1 [Compound 11, 4-benzyl-12-(4-bromo-3-chlorobenzoyl)-7-phenyl-2,3,7,12-tetraazatricyclo[7.4.0.0^[2,6]]trideca-1(9),3,5-trien-8-one] |  | > 5000 |
| CNC(=O)c1ccc(-n2c(=O)c3c(n4ncc(NCc5ccc(C#N)cc5)c24)CN(C(=O)c2ccc(Cl)c(Cl)c2)CC3)cc1 [Compound 51, 4-[5-[(4-cyanophenyl)methylamino]-12-(3,4-dichlorobenzoyl)-8-oxo-2,3,7,12-tetrazatricyclo [7.4.0.0 2,6]trideca-1(9),3,5-trien-7-yl]-N-methyl-benzamide] | 500 to 5000 |  |
| CNC(=O)c1ccc(-n2c(=O)c3c(n4ncc(NCc5ccc(C#N)cc5)c24)CN(C(=O)c2ccc(Br)c(Cl)c2)CC3)cc1 [Compound 55, 4-[12-(4-bromo-3-chloro-benzoyl)-5-[(4-cyanophenyl)methylamino]-8-oxo-2,3,7,12-tetrazatricyclo [7.4.0.0 2,6]trideca-1(9),3,5-trien-7-yl]-N-methyl-benzamide] | 100 to 500 |  |
| CNC(=O)c1ccc(-n2c(=O)c3c(n4ncc(Cc5ccccc5)c24)CN(C(=O)c2ccc(Br)cn2)CC3)cc1 [Compound 56, 4-[5-benzyl-12-(5-bromopyridine-2-carbonyl)-8-oxo-2,3,7,12-tetrazatricyclo [7.4.0.0 2,6]trideca-1(9),3,5-trien-7-yl]-N-methyl-benzamide] | 500 to 5000 |  |
